The text below walks through data of patent publication US6649656B1, “Anthranilic acid derivatives” (Teijin Limited, priority 1998, dated 2003).

One experiment has as its system L929 cells. Put plainly: Measurement of cytotoxicity using mouse tumor cell L929 (neutral red assay). The experiment is classed as cell-based. The protocol:
[Procedure] The cytotoxicity action on tumor cell was measured by neutral red assay (the method described in the Journal of Tissue Culture Methodology vol.9, p.7 (1984) and Toxicology Letters, vol.24, p.119 (1985)). Concretely, L929 cells (5×10^4 cells/ml, 10% FCS/RPMI) were added to the wells of a 96 well ELISA plate at a rate of 100 μL each and cultured for a night, and the testing compounds of respective measurement concentrations were dissolved in DMSO solution and added to the above cells. The culture was continued for 3 days, and 2.0 μL of Neutral Red was added to attain the final concentration of 0.01%. The mixture was incubated for 1 hour at 37° C., the supernatant of the cell culture product was removed and the residue was washed twice with 200 μL of PBS to remove excess Neutral Red. Thereafter, the dye taken into the cell was extracted by adding 100 μL of 50% ethanol-1% acetic acid aqueous solution and the amount of the dye was determined by measuring the absorbance at 490 nm. The cytotoxicity was determined at each concentration of the test compound taking the cytotoxicity free from the drug as 100%. […] Two sets of measurement were performed for each test under the same condition and the average value was used as the test result.

Experiment [1] relates to Cultured human cancer cells. Put plainly: Carcinostatic action on cultured human cancer cell (sulforhodamine B; GI50, TGI, LC50). The experiment is classed as cell-based. Conditions: for CC50 / GI50: Homo sapiens. The protocol: [Procedure] Cultured human cancer cells (39 kinds) were scattered on a 96 well plate, a solution of the testing substance (5-stage concentrations starting from 10^−4 M and diluted 10 times to 10^−8 M) was added thereto on the next day and the cells were cultured for 2 days. The number of the proliferated cells on each plate was determined by colorimetric quantitative analysis with sulforhodamine B. The concentration to suppress the proliferation of cell by 50% (GI50) compared with a control (free from the testing substance) was calculated and the following values (concentrations) were calculated based on the number of cells immediately before the addition of the testing substance.
TGI: concentration to suppress the proliferation to a standard cell number (free from the change of apparent number of cells)
LC50: concentration to decrease the number of cells to 50% of the standard cell number (cytocidal activity)
The proliferation-suppressing results of three testing substances 124, 257 and 983 on 9 representative cancer cell strains are collectively shown in the Tables 93 to 95.

Where [2] appears, read: L929, 72 h, read-out: LD50 (μM).
The mark [3] stands for this setting: 72 h, cytotoxic activity against L929, neutral red assay, 3 days culture, read-out: LD50 (the source's name).

Where two headings read alike, the source gives them in different places. Bounds are passed on as bounds.

For orientation: TGI means the concentration at which net growth stops. High values mean lower sensitivity of the cells, low ones greater sensitivity of the cells. As usually defined, the GI50 is the concentration giving 50% growth inhibition. Higher therefore signals less potent growth inhibition.

In the case of `O=C(Cc1ccc(Oc2ccc3cc(OCC(=O)c4ccccc4)ccc3c2)cc1)Nc1ccccc1C(=O)O` [compound 6], the CC50 in the experiment with L929 cells (setting [2]) came to 2.4 µM.

With `O=C(Cc1ccc(Oc2ccc(OCc3ccncc3)cc2)cc1)Nc1ccccc1C(=O)O` [compound 37], the CC50 with L929 cells (setting [2]) was 1.02 µM.

As for `O=C(Cc1ccc(Oc2ccc(OC3CCC(NC(=O)Nc4ccccc4)CC3)cc2)cc1)Nc1ccccc1C(=O)O` (stereo not drawn) [compound 138], the CC50 with L929 cells (setting [3]) is 0.13 µM.

On to `O=C(Cc1ccc(Oc2ccc(OC3CCN(Sc4ccc(Cl)c(Cl)c4)CC3)cc2)cc1)Nc1ccccc1C(=O)O` [compound 257], for which the “TGI” value stood at 18 µM in experiment [1] (HBC-4); 17 µM in experiment [1] (HCT-15); 10 µM in experiment [1] (LOX-IMVI); 16 µM in experiment [1] (MKN-74); 11 µM in experiment [1] (NCI-H460); 23 µM in experiment [1] (OVCAR-8). The total growth inhibition concentration (TGI) in experiment [1] (PC-3) worked out at 26 µM; in experiment [1] (RXF-631L), 14 µM; in experiment [1] (SF-539) it was 17 µM. The CC50 was 58 µM in experiment [1] (HBC4, HBC-4); 53 µM in experiment [1] (HCT-15); over 100 µM in experiment [1] (MKN-74); 44 µM in experiment [1] (NCI-H460); 59 µM in experiment [1] (OVCAR-8); 69 µM in experiment [1] (PC-3). The CC50 is 42 µM in experiment [1] (RXF-631L), 51 µM in experiment [1] (SF-539) and 44 µM in experiment [1] (LOX-IMVI). In addition, the 50% growth inhibitory concentration (GI50) in experiment [1] (HBC4, HBC-4) was under 0.01 µM; in experiment [1] (HCT-15), under 0.01 µM; in experiment [1] (MKN-74), under 0.01 µM; in experiment [1] (NCI-H460), under 0.01 µM; in experiment [1] (OVCAR-8), under 0.01 µM; in experiment [1] (PC-3), 10 µM. Also, the GI50 in experiment [1] (RXF-631L), in experiment [1] (SF-539) and in experiment [1] (LOX-IMVI) was under 0.01 µM throughout.

Consider `Cn1c(C(=O)N[C@H]2CC[C@@H](Oc3ccc(Oc4ccc(CC(=O)Nc5ccccc5C(=O)O)cc4)cc3)CC2)cc2ccccc21` [compound 167], for which the CC50 with L929 cells (setting [3]) is 0.18 µM.

`CC(=O)NC1(COc2ccc(Oc3ccc(CC(=O)Nc4ccccc4C(=O)O)cc3)cc2)CCCC1` [compound 73]: the CC50 in the experiment on L929 cells (setting [2]) was over 5 µM.

Consider `N#Cc1cccc(SN2CCC(Oc3ccc(Oc4ccc(CC(=O)Nc5ccccc5C(=O)O)cc4)cc3)CC2)c1` [compound 264], for which the CC50 with L929 cells (setting [3]) worked out at 0.156 µM.

Take `CN(C)CCOc1ccc(Oc2ccc(CC(=O)Nc3ccccc3C(=O)O)cc2)cc1` [compound 47]: the CC50 in the experiment on L929 cells (setting [3]) came to 0.2 µM.

Turning to `COC(=O)N1CCC[C@H]1COc1ccc(Oc2ccc(CC(=O)Nc3ccccc3C(=O)O)cc2)cc1` [compound 59], the CC50 in the experiment with L929 cells (setting [2]) was determined as 2.4 µM.

Take `O=C(Cc1ccc(Oc2ccc(O[C@H]3CC[C@@H](NC(=O)c4ccc(Oc5cc(Cl)cc(Cl)c5)o4)CC3)cc2)cc1)Nc1ccccc1C(=O)O` [compound 248]: in the experiment with L929 cells (setting [3]), the CC50 came to 0.085 µM.

`O=C(Cc1ccc(Oc2ccc(OC3CCC(NS(=O)(=O)c4ccc(Cl)c(Cl)c4)CC3)cc2)cc1)Nc1ccccc1C(=O)O` (stereo not drawn) [compound 124]: the CC50 was 0.14 µM in the experiment on L929 cells (setting [3]); 57 µM in experiment [1] (HBC4, HBC-4); 58 µM in experiment [1] (HCT-15); over 100 µM in experiment [1] (MKN-74); 69 µM in experiment [1] (NCI-H460); 57 µM in experiment [1] (OVCAR-8). For the same compound, the CC50 in experiment [1] (PC-3) is 55 µM; in experiment [1] (RXF-631L) it was 38 µM; in experiment [1] (SF-539) it was 57 µM; in experiment [1] (LOX-IMVI), 45 µM. The “TGI” value in experiment [1] (HBC-4) turned out to be 18 µM; in experiment [1] (HCT-15), 17 µM; in experiment [1] (LOX-IMVI) it was 10 µM; in experiment [1] (MKN-74), 16 µM; in experiment [1] (NCI-H460) it was 14 µM; in experiment [1] (OVCAR-8) it was 23 µM. Further, the total growth inhibition concentration (TGI) is 24 µM in experiment [1] (PC-3), 12 µM in experiment [1] (RXF-631L) and 26 µM in experiment [1] (SF-539). Besides, the GI50 in experiment [1] (HBC4, HBC-4) is 0.25 µM; in experiment [1] (HCT-15), 0.17 µM; in experiment [1] (MKN-74) it was 0.086 µM; in experiment [1] (NCI-H460), 0.091 µM; in experiment [1] (OVCAR-8) it was 3.1 µM; in experiment [1] (PC-3) it was 10 µM. Besides, the concentration for 50% growth inhibition (GI50) in experiment [1] (RXF-631L) was found to be 0.13 µM; in experiment [1] (SF-539), 0.13 µM; in experiment [1] (LOX-IMVI) it was 0.09 µM.

With `O=C(Cc1ccc(Oc2ccc(O[C@H]3CC[C@@H](NC(=O)c4ccc(-c5ccccc5)cc4)CC3)cc2)cc1)Nc1ccccc1C(=O)O` [compound 192], the CC50 in the experiment with L929 cells (setting [3]) came out at 0.26 µM.

Take `O=C(Cc1ccc(Oc2ccc(OCC3(NC(=O)c4ccccc4)CCCC3)cc2)cc1)Nc1ccccc1C(=O)O` [compound 74]: in the experiment on L929 cells (setting [2]), the CC50 is over 5 µM.

For `CNc1ccccc1C(=O)N[C@H]1CC[C@@H](Oc2ccc(Oc3ccc(CC(=O)Nc4ccccc4C(=O)O)cc3)cc2)CC1` [compound 156], in the experiment on L929 cells (setting [3]), the CC50 was found to be 0.3 µM.

Turning to `O=C(Cc1ccc(Oc2ccc(OCC3(NSc4ccccc4)CCCC3)cc2)cc1)Nc1ccccc1C(=O)O` [compound 268], the CC50 in the experiment on L929 cells (setting [3]) is 0.16 µM.

With `O=C(Cc1ccc(Oc2ccc(OC3CCCCCCC3)cc2)nc1)Nc1ccccc1C(=O)O` [compound 983], the concentration for total growth inhibition (TGI) in experiment [1] (HBC-4) was determined as 76 µM; in experiment [1] (HCT-15) it was 30 µM; in experiment [1] (LOX-IMVI) it was 3.4 µM; in experiment [1] (MKN-74) it was 25 µM; in experiment [1] (NCI-H460), 16 µM; in experiment [1] (OVCAR-8), 40 µM. The “TGI” value came to 31 µM in experiment [1] (PC-3), 18 µM in experiment [1] (RXF-631L) and 20 µM in experiment [1] (SF-539). Also, the CC50 is over 100 µM in experiment [1] (HBC4, HBC-4); over 100 µM in experiment [1] (HCT-15); over 100 µM in experiment [1] (MKN-74); 95 µM in experiment [1] (NCI-H460); over 100 µM in experiment [1] (OVCAR-8); over 100 µM in experiment [1] (PC-3). Also, the CC50 in experiment [1] (RXF-631L) is 96 µM; in experiment [1] (SF-539), 51 µM; in experiment [1] (LOX-IMVI) it was 50 µM. Also, the 50% growth inhibitory concentration (GI50) was 0.59 µM in experiment [1] (HBC4, HBC-4); 0.1 µM in experiment [1] (HCT-15); 0.46 µM in experiment [1] (MKN-74); 0.33 µM in experiment [1] (NCI-H460); 4.2 µM in experiment [1] (OVCAR-8); 4.5 µM in experiment [1] (PC-3). For the same compound, the GI50 is 0.4 µM in experiment [1] (RXF-631L), 0.6 µM in experiment [1] (SF-539) and 0.26 µM in experiment [1] (LOX-IMVI).

Take `O=C(CCCOc1ccc2cc(Oc3ccc(CC(=O)Nc4ccccc4C(=O)O)cc3)ccc2c1)Nc1ccccc1C(=O)O` [compound 4]: the CC50 with L929 cells (setting [3]) came out at 0.375 µM.
